According to patent US20050009005A1, “Methods of using quantitative lipid metabolome data” (Lipomics Technologies, Inc., priority 2001, published 2005):
Like-named read-outs stand apart in the source and are kept apart here.

Test system: de novo fatty acid synthesis
[1] = Liver, CE, mean of treated mice
[2] = Liver, FFA, mean of treated mice
[3] = Liver, PC, mean of treated mice
[4] = Liver, PS/I, mean of treated mice
[5] = Liver, TAG, mean of treated mice
[6] = Plasma, CE, mean of treated mice
[7] = Plasma, FFA, mean of treated mice
[8] = Plasma, PC, mean of treated mice
[9] = Plasma, PL, mean of treated mice
[10] = Plasma, TAG, mean of treated mice

Compound: CN(CCOc1ccc(CC2SC(=O)NC2=O)cc1)c1ccccn1 (stereo not drawn) [rosiglitazone]
- 18:0 [1]: 204.4 nanomoles per gram
- 18:1n7 [1]: 138.6 nanomoles per gram
- 18:1n9 [1]: 1208.0 nanomoles per gram
- Saturates [1]: 3147.2 nanomoles per gram
- Total n7 [1]: 817.0 nanomoles per gram
- Total n9 [1]: 1239.5 nanomoles per gram
- Total nMole of [1]: 5830.7 nanomoles per gram
- 14:0 (Liver, CL, mean): 0.5 percentage of total fatty acids within each lipid class
- 16:0 (Liver, CL, mean): 5.7 percentage of total fatty acids within each lipid class
- 16:1n7 (Liver, CL, mean): 6.3 percentage of total fatty acids within each lipid class
- 18:0 (Liver, CL, mean): 3.6 percentage of total fatty acids within each lipid class
- 18:1n7 (Liver, CL, mean): 5.5 percentage of total fatty acids within each lipid class
- 18:1n9 (Liver, CL, mean): 10.0 percentage of total fatty acids within each lipid class
- Saturates (Liver, CL, mean): 10.6 percentage of total fatty acids within each lipid class
- Total (Liver, CL, mean): 100.0 percentage of total fatty acids within each lipid class
- Total n7 (Liver, CL, mean): 11.8 percentage of total fatty acids within each lipid class
- Total n9 (Liver, CL, mean): 10.5 percentage of total fatty acids within each lipid class
- 14:0 (Liver, FFA, mean): 1.0 percentage of total fatty acids within each lipid class
- 16:0 (Liver, FFA, mean): 19.9 percentage of total fatty acids within each lipid class
- 16:1n7 (Liver, FFA, mean): 9.4 percentage of total fatty acids within each lipid class
- 18:0 (Liver, FFA, mean): 3.0 percentage of total fatty acids within each lipid class
- 18:1n7 (Liver, FFA, mean): 6.4 percentage of total fatty acids within each lipid class
- 18:1n9 (Liver, FFA, mean): 25.4 percentage of total fatty acids within each lipid class
- Saturates (Liver, FFA, mean): 24.4 percentage of total fatty acids within each lipid class
- Total (Liver, FFA, mean): 100.0 percentage of total fatty acids within each lipid class
- Total n7 (Liver, FFA, mean): 15.8 percentage of total fatty acids within each lipid class
- Total n9 (Liver, FFA, mean): 26.0 percentage of total fatty acids within each lipid class
- 14:0 [2]: 236.5 nanomoles per gram
- 16:0 [2]: 4507.0 nanomoles per gram
- 16:1n7 [2]: 2121.2 nanomoles per gram
- 18:0 [2]: 691.5 nanomoles per gram
- 18:1n7 [2]: 1466.0 nanomoles per gram
- 18:1n9 [2]: 5761.2 nanomoles per gram
- Saturates [2]: 5541.5 nanomoles per gram
- Total n7 [2]: 3587.3 nanomoles per gram
- Total n9 [2]: 5909.9 nanomoles per gram
- Total nMole of [2]: 22631.3 nanomoles per gram
- 14:0 (Liver, PC, mean): 0.2 percentage of total fatty acids within each lipid class
- 16:0 (Liver, PC, mean): 33.3 percentage of total fatty acids within each lipid class
- 16:1n7 (Liver, PC, mean): 1.7 percentage of total fatty acids within each lipid class
- 18:0 (Liver, PC, mean): 10.3 percentage of total fatty acids within each lipid class
- 18:1n7 (Liver, PC, mean): 4.6 percentage of total fatty acids within each lipid class
- 18:1n9 (Liver, PC, mean): 9.6 percentage of total fatty acids within each lipid class
- Saturates (Liver, PC, mean): 44.1 percentage of total fatty acids within each lipid class
- Total (Liver, PC, mean): 100.0 percentage of total fatty acids within each lipid class
- Total n7 (Liver, PC, mean): 6.4 percentage of total fatty acids within each lipid class
- Total n9 (Liver, PC, mean): 10.2 percentage of total fatty acids within each lipid class
- 14:0 [3]: 43.2 nanomoles per gram
- 16:0 [3]: 9572.4 nanomoles per gram
- 16:1n7 [3]: 501.3 nanomoles per gram
- 18:0 [3]: 2975.6 nanomoles per gram
- 18:1n7 [3]: 1329.1 nanomoles per gram
- 18:1n9 [3]: 2767.4 nanomoles per gram
- Saturates [3]: 12686.5 nanomoles per gram
- Total n7 [3]: 1830.5 nanomoles per gram
- Total n9 [3]: 2932.3 nanomoles per gram
- Total nMole of [3]: 14390.8 nanomoles per gram
- 14:0 (Liver, PS/I, mean): 0.2 percentage of total fatty acids within each lipid class
- 16:0 (Liver, PS/I, mean): 11.1 percentage of total fatty acids within each lipid class
- 16:1n7 (Liver, PS/I, mean): 0.7 percentage of total fatty acids within each lipid class
- 18:0 (Liver, PS/I, mean): 32.3 percentage of total fatty acids within each lipid class
- 18:1n7 (Liver, PS/I, mean): 2.9 percentage of total fatty acids within each lipid class
- 18:1n9 (Liver, PS/I, mean): 6.7 percentage of total fatty acids within each lipid class
- Saturates (Liver, PS/I, mean): 44.2 percentage of total fatty acids within each lipid class
- Total (Liver, PS/I, mean): 100.0 percentage of total fatty acids within each lipid class
- Total n7 (Liver, PS/I, mean): 3.6 percentage of total fatty acids within each lipid class
- Total n9 (Liver, PS/I, mean): 8.2 percentage of total fatty acids within each lipid class
- 14:0 [4]: 18.9 nanomoles per gram
- 16:0 [4]: 1158.5 nanomoles per gram
- 16:1n7 [4]: 76.0 nanomoles per gram
- 18:0 [4]: 3348.9 nanomoles per gram
- 18:1n7 [4]: 303.2 nanomoles per gram
- 18:1n9 [4]: 693.2 nanomoles per gram
- Saturates [4]: 4590.1 nanomoles per gram
- Total n7 [4]: 379.2 nanomoles per gram
- Total n9 [4]: 854.3 nanomoles per gram
- Total nMole of [4]: 5196.5 nanomoles per gram
- 14:0 (Liver, TAG, mean): 0.5 percentage of total fatty acids within each lipid class
- 16:0 (Liver, TAG, mean): 27.1 percentage of total fatty acids within each lipid class
- 16:1n7 (Liver, TAG, mean): 8.1 percentage of total fatty acids within each lipid class
- 18:0 (Liver, TAG, mean): 0.6 percentage of total fatty acids within each lipid class
- 18:1n7 (Liver, TAG, mean): 5.8 percentage of total fatty acids within each lipid class
- 18:1n9 (Liver, TAG, mean): 39.6 percentage of total fatty acids within each lipid class
- Saturates (Liver, TAG, mean): 28.6 percentage of total fatty acids within each lipid class
- Total (Liver, TAG, mean): 100.0 percentage of total fatty acids within each lipid class
- Total n7 (Liver, TAG, mean): 13.9 percentage of total fatty acids within each lipid class
- Total n9 (Liver, TAG, mean): 40.5 percentage of total fatty acids within each lipid class
- 14:0 [5]: 2450.8 nanomoles per gram
- 16:0 [5]: 122013.9 nanomoles per gram
- 16:1n7 [5]: 36411.0 nanomoles per gram
- 18:0 [5]: 2665.4 nanomoles per gram
- 18:1n7 [5]: 26279.6 nanomoles per gram
- 18:1n9 [5]: 179035.8 nanomoles per gram
- Saturates [5]: 129102.3 nanomoles per gram
- Total n7 [5]: 62690.6 nanomoles per gram
- Total n9 [5]: 183105.4 nanomoles per gram
- Total nMole of [5]: 150412.8 nanomoles per gram
- 14:0 (Plasma, CE, mean): 0.6 percentage of total fatty acids within each lipid class
- 16:0 (Plasma, CE, mean): 3.7 percentage of total fatty acids within each lipid class
- 16:1n7 (Plasma, CE, mean): 6.5 percentage of total fatty acids within each lipid class
- 18:0 (Plasma, CE, mean): 0.2 percentage of total fatty acids within each lipid class
- 18:1n7 (Plasma, CE, mean): 0.7 percentage of total fatty acids within each lipid class
- 18:1n9 (Plasma, CE, mean): 6.1 percentage of total fatty acids within each lipid class
- Saturates (Plasma, CE, mean): 4.9 percentage of total fatty acids within each lipid class
- Total (Plasma, CE, mean): 100.0 percentage of total fatty acids within each lipid class
- Total n7 (Plasma, CE, mean): 7.3 percentage of total fatty acids within each lipid class
- Total n9 (Plasma, CE, mean): 6.6 percentage of total fatty acids within each lipid class
- 14:0 [6]: 16.8 nanomoles per gram
- 16:0 [6]: 113.0 nanomoles per gram
- 16:1n7 [6]: 200.8 nanomoles per gram
- 18:0 [6]: 7.1 nanomoles per gram
- 18:1n7 [6]: 22.7 nanomoles per gram
- 18:1n9 [6]: 189.1 nanomoles per gram
- Saturates [6]: 148.8 nanomoles per gram
- Total n7 [6]: 223.4 nanomoles per gram
- Total n9 [6]: 202.2 nanomoles per gram
- Total nMole of [6]: 3058.7 nanomoles per gram
- 14:0 (Plasma, FFA, mean): 3.3 percentage of total fatty acids within each lipid class
- 16:0 (Plasma, FFA, mean): 30.9 percentage of total fatty acids within each lipid class
- 16:1n7 (Plasma, FFA, mean): 8.3 percentage of total fatty acids within each lipid class
- 18:0 (Plasma, FFA, mean): 8.1 percentage of total fatty acids within each lipid class
- 18:1n7 (Plasma, FFA, mean): 3.2 percentage of total fatty acids within each lipid class
- 18:1n9 (Plasma, FFA, mean): 18.4 percentage of total fatty acids within each lipid class
- Saturates (Plasma, FFA, mean): 43.8 percentage of total fatty acids within each lipid class
- Total (Plasma, FFA, mean): 100.0 percentage of total fatty acids within each lipid class
- Total n9 (Plasma, FFA, mean): 18.9 percentage of total fatty acids within each lipid class
- 14:0 [7]: 15.9 nanomoles per gram
- 16:0 [7]: 148.4 nanomoles per gram
- 16:1n7 [7]: 41.4 nanomoles per gram
- 18:0 [7]: 37.3 nanomoles per gram
- 18:1n7 [7]: 15.2 nanomoles per gram
- 18:1n9 [7]: 90.2 nanomoles per gram
- Saturates [7]: 208.8 nanomoles per gram
- Total n7 [7]: 56.7 nanomoles per gram
- Total n9 [7]: 92.7 nanomoles per gram
- Total nMole of [7]: 478.4 nanomoles per gram
- 14:0 (Plasma, PC, mean): 0.1 percentage of total fatty acids within each lipid class
- 16:0 (Plasma, PC, mean): 30.8 percentage of total fatty acids within each lipid class
- 16:1n7 (Plasma, PC, mean): 0.8 percentage of total fatty acids within each lipid class
- 18:0 (Plasma, PC, mean): 13.0 percentage of total fatty acids within each lipid class
- 18:1n7 (Plasma, PC, mean): 4.1 percentage of total fatty acids within each lipid class
- 18:1n9 (Plasma, PC, mean): 9.4 percentage of total fatty acids within each lipid class
- Saturates (Plasma, PC, mean): 44.6 percentage of total fatty acids within each lipid class
- Total (Plasma, PC, mean): 100.0 percentage of total fatty acids within each lipid class
- Total n7 (Plasma, PC, mean): 4.9 percentage of total fatty acids within each lipid class
- Total n9 (Plasma, PC, mean): 9.9 percentage of total fatty acids within each lipid class
- 14:0 [8]: 5.7 nanomoles per gram
- 16:0 [8]: 1246.9 nanomoles per gram
- 16:1n7 [8]: 34.2 nanomoles per gram
- 18:0 [8]: 528.9 nanomoles per gram
- 18:1n7 [8]: 164.8 nanomoles per gram
- 18:1n9 [8]: 383.4 nanomoles per gram
- Saturates [8]: 1804.9 nanomoles per gram
- Total n7 [8]: 199.0 nanomoles per gram
- Total n9 [8]: 405.1 nanomoles per gram
- Total nMole of [8]: 2027.9 nanomoles per gram
- 14:0 (Plasma, PL, mean): 0.2 percentage of total fatty acids within each lipid class
- 16:0 (Plasma, PL, mean): 30.9 percentage of total fatty acids within each lipid class
- 16:1n7 (Plasma, PL, mean): 0.9 percentage of total fatty acids within each lipid class
- 18:0 (Plasma, PL, mean): 11.9 percentage of total fatty acids within each lipid class
- 18:1n7 (Plasma, PL, mean): 3.9 percentage of total fatty acids within each lipid class
- 18:1n9 (Plasma, PL, mean): 7.4 percentage of total fatty acids within each lipid class
- Saturates (Plasma, PL, mean): 43.9 percentage of total fatty acids within each lipid class
- Total (Plasma, PL, mean): 100.0 percentage of total fatty acids within each lipid class
- Total n7 (Plasma, PL, mean): 4.8 percentage of total fatty acids within each lipid class
- Total n9 (Plasma, PL, mean): 8.7 percentage of total fatty acids within each lipid class
- 14:0 [9]: 7.7 nanomoles per gram
- 16:0 [9]: 1533.6 nanomoles per gram
- 16:1n7 [9]: 43.0 nanomoles per gram
- 18:0 [9]: 604.7 nanomoles per gram
- 18:1n7 [9]: 195.0 nanomoles per gram
- 18:1n9 [9]: 384.8 nanomoles per gram
- Saturates [9]: 2191.4 nanomoles per gram
- Total n7 [9]: 238.0 nanomoles per gram
- Total n9 [9]: 449.9 nanomoles per gram
- Total nMole of [9]: 2496.5 nanomoles per gram
- 14:0 (Plasma, TAG, mean): 1.2 percentage of total fatty acids within each lipid class
- 16:0 (Plasma, TAG, mean): 21.9 percentage of total fatty acids within each lipid class
- 16:1n7 (Plasma, TAG, mean): 7.0 percentage of total fatty acids within each lipid class
- 18:0 (Plasma, TAG, mean): 1.8 percentage of total fatty acids within each lipid class
- 18:1n7 (Plasma, TAG, mean): 4.5 percentage of total fatty acids within each lipid class
- 18:1n9 (Plasma, TAG, mean): 27.2 percentage of total fatty acids within each lipid class
- Saturates (Plasma, TAG, mean): 25.8 percentage of total fatty acids within each lipid class
- Total (Plasma, TAG, mean): 100.0 percentage of total fatty acids within each lipid class
- Total n9 (Plasma, TAG, mean): 27.9 percentage of total fatty acids within each lipid class
- 14:0 [10]: 17.1 nanomoles per gram
- 16:0 [10]: 315.8 nanomoles per gram
- 16:1n7 [10]: 102.5 nanomoles per gram
- 18:0 [10]: 24.9 nanomoles per gram
- 18:1n7 [10]: 66.1 nanomoles per gram
- 18:1n9 [10]: 398.8 nanomoles per gram
- Saturates [10]: 368.7 nanomoles per gram
- Total n7 [10]: 168.5 nanomoles per gram
- Total n9 [10]: 410.2 nanomoles per gram
- Total nMole of [10]: 484.3 nanomoles per gram
